Laboratory results published in publication PMC8635623, “A click chemistry approach to pleuromutilin derivatives, evaluation of anti-MRSA activity and elucidation of binding mode by surface plasmon resonance and molecular docking” (Journal of Enzyme Inhibition and Medicinal Chemistry, 2021).
In brackets after ≈: the same amount, converted by molar mass. Where two headings read alike, the source gives them in different places.

Columns and labels:
50S ribosome = test: SPR binding studies; set-up: species or system S. aureus; settings: for Ka (association rate constant) / Kd (dissociation rate constant): PBST pH 7.4, compound immobilised, 50S ribosome 200-3200 nM
Description: In order to gain some insight into the binding mode of the potent inhibitors, SPR experiments were performed. […] The response unit (RU) of surface resonance was compared to determine the different binding affinities between each compound and the 50S ribosome. The association rate constants (Ka) and dissociation rate constant (Kd) represent the rate of association and dissociation in the binding reaction, respectively. The equilibrium dissociation constant (KD) indicated the degree of dissociation of compounds and the 50S ribosome in the equilibrium state. Their binding curves during the experiment were shown in Figure 3, as well as the concentration gradient curves were shown in Figure SI 27–34.
SPR biosensing experiments were performed at 4 °C using the bScreen LB 991 Label-free Microarray System (Berthold Technologies, Germany) and the photo-cross-linker sensor chip. The BIODOT™ AD-1520 Array Printer (BIODOT Inc., USA) was used for printing samples and control on the chip surface. A UV Spectroirradiator 1020 (Amersham Life Science, USA) was used for the photo-cross-linking reaction quickly after the array print.
As described in the reference[32–34] with minor modifications, the ribosome of S. aureus were extracted and purified to obtain 50S ribosome. MRSA (ATCC 43300) was incubated overnight at 37 °C. The bacteria solution was inoculated into a new culture solution, and cells were collected at an OD600 = 1.5. The bacterial culture was centrifuged 3 times at 3,500 rpm using a TX-400 rotor at 4 °C for 30 min, and then the supernatant was discarded. Cells were washed twice with 10 mM Tris-HCl (pH = 7.5), and suspend the precipitate with buffer A (20 mM HEPES-HCl pH = 7.5, 100 mM NH4Cl, 21 mM Mg(OAc)2, 1 mM EDTA, 1 mM DTT). Cells were lysed by repeated (>3×) snap-freezing and thawing, then ultrasonic disintegration was performed. To remove cell debris, the crushed product was centrifuged at 20,000 rpm for 90 min at 4 °C.The lysate layered on 15 ml of a sucrose cushion (10 mM HEPES-HCl pH = 7.5, 500 mM KCl, 25 mM Mg(OAc)2, 1.1 M sucrose, 0.5 mM EDTA, 1 mM DTT) and centrifuged in the ultracentrifuge(Optima^TM TL 100) at 45,000 rpm using a type70Ti rotor at 4 °C for 15 h to obtain ribosomal particles. Pellet was resuspended in 3 ml of buffer E (10 mM HEPES-HCl pH = 7.5, 100 mM KCl, 1 mM Mg(OAc)2, 0.5 mM EDTA, 1 mM DTT), then layered on 9 ml of 7–30% sucrose gradient and ultracentrifuged at 17,100 rpm using a typeSW40Ti rotor at 4 °C for 15 h. The gradient was analysed on the AKTA explorer system. The fractions corresponding to 50S ribosome were collected and PEG 20000 was added to a final concentration of 4.5% w/v. Ribosomes were pelleted by centrifugation at 20,000 rpm for 12 min, the pellet was gently dissolved in 200 µL of storage buffer (10 mM HEPES-HCl pH = 7.5, 15 mM KCl, 60 mM NH4Cl, 10 mM Mg(OAc)2, 1 mM DTT) and then flash-frozen for storage at −80 °C.
Dilute these compounds to a concentration of 10 mM with DMSO as the stationary phase printing working solution. After that, the printing working solution was printed on the sensor chip by the array printer, and each sample was printed four times repeatedly. Four groups of positive control dots (12 rapamycin dots, 3 in each corner) were printed on the four corners of the sensor chip respectively. The sample dots were dried in vacuum, and the sensor chip was quickly transferred to the UV spectroirradiator for a photo-cross-linking reaction. Subsequently, the sensor chip was washed with DMF, methanol, and water for 15 min in turn, followed by blowing dry under nitrogen, and then assembled with Flowcell Cover.
The binding studies were performed with PBST running buffer (pH = 7.4, 0.1% Tween 20) at a constant flow rate of 0.5 µL/s in instrument. 50S Ribosome was diluted separately with PBST running buffer to 200 nM, 400 nM, 800 nM, 1600 nM and 3200 nM and injected consecutively for 600 s at associating stage, followed by running buffer for 360 s at each dissociating stage. […]

MRSA ATCC 43300 [1] = test: MIC/MBC by broth micro dilution; assay type: cell-based, methicillin-resistant S. aureus; settings: for MIC: 37 °C, 24 h; for MBC: lowest concentration reducing viable counts by 99.9%
Description: (§1) All the synthesised 1,2,3-triazole linked pleuromutilin analogues were screened for in vitro antibacterial activities against methicillin-resistant S. aureus (ATCC 43300), S. aureus (ATCC 29213), and two clinical strains of S. aureus (AD3 and 144, isolated from Guangdong Province, China). The MICs and MBCs of the synthesised pleuromutilin derivatives along with pleuromutilin and tiamulin used as the reference antibacterial drugs, were determined by the broth micro dilution methods according to the Clinical and Laboratory Standards Institute (CLSI)[18].
(§2) The MIC of these novel pleuromutilin derivatives against methicillin-resistant S. aureus (ATCC 43300), S. aureus (ATCC 29213), S. aureus (AD3) and S. aureus (144) were determined by using pleuromutilin and tiamulin as positive control. MIC values were determined by the broth micro dilution methods in accordance with the Clinical and Laboratory Standards Institute (2012). Stock solutions of these compounds were dissolved in methanol to make a stock solution with a concentration of 1280 µg/mL. The working solutions (640 µg/mL) were obtained by diluting stock solutions in sterile Mueller-Hinton (MH) broth. The bacterial solution and solutions of these compounds with a final concentration of 0.016–32 µg/mL were distributed into 96-well plates, with a total volume of 200 µL. Three parallel experiments for each compound concentration. The plates were incubated at 37 °C for 24 h.
(§3) MBC values were determined according to CLSI (2003) and previously report with slightly modification[18]^,[28]^,[31]. After obtaining the MIC results, the 96-well plates were incubated at 37 °C for 24 h. 100 µL of the bacterial solution from the wells with no visible growth was inoculated on MH agar plates. The MH agar plates were incubated at 37 °C for colony count. The MBC was determined as the lowest concentration of compound, which reduces the viable counts for 99.9%.

MRSA ATCC 43300 [2] = test: Constant concentration time-kill curves; assay type: cell-based, methicillin-resistant S. aureus; settings: for time-kill kinetics result: 8 × MIC, cultured for 24 h; for concentration giving a bactericidal effect: time-kill, MRSA
Description: The time-kill kinetic approach was used to investigate the anti-MRSA activity of compounds 50, 62 and 64. The experimental results were presented in graphic form in Figure 2. Compared with growth control, compounds 50 and 62 inhibited the reproduction of bacteria to a certain extent.
The time-kill curve determination is an in vitro bactericidal kinetics model, which is used to study the sustained killing effect of bacteria within 24 h at a certain drug concentration. The bactericidal activity of compounds 50, 62 and 64 was determined by the time-kill curve as reported in our previous work[18]^,[22]. MRSA grown in MH broth were diluted to approximately 1 × 10^6 CFU/mL. […] 100 µL of samples were collected from the subculture inoculums before culture (0 h) and 3 h, 6 h, 9 h and 24 h after culture, and serially diluted 10-flod with sterile saline. The dilution of each gradient (25 µL) was uniformly suspended on the MH agar plates. The total bacterial CFU/mL on the plates were counted to calculate the bacterial colonies after up to 20 h of incubation at 37 °C. The results are represented by Mean ± SD, with the log10 CFU/mL of bacteria counts as the ordinate and time as the abscissa, the time-kill curves of different concentrations of compounds against MRSA were established respectively.

S. aureus AD3 = test: MIC/MBC by broth micro dilution; assay type: cell-based; settings: Staphylococcus aureus, S. aureus AD3 (clinical strain); for MIC: 37 °C, 24 h; for MBC: lowest concentration reducing viable counts by 99.9%
Description: as §1, §2, §3

S. aureus ATCC 29213 = test: MIC/MBC by broth micro dilution; assay type: cell-based; settings: Staphylococcus aureus; for MIC: ATCC29213, 37 °C, 24 h; for MBC: ATCC29213, lowest concentration reducing viable counts by 99.9%
Description: as §1, §2, §3

S. aureus 144 = test: MIC/MBC by broth micro dilution; assay type: cell-based; settings: Staphylococcus aureus, S. aureus 144 (clinical strain); for MIC: 37 °C, 24 h; for MBC: lowest concentration reducing viable counts by 99.9%
Description: as §1, §2, §3

[3] = 4 °C, PBST pH 7.4, KD = Kd/Ka, read-out: KD (equilibrium dissociation constant)
[4] = Staphylococcus aureus, read-out: MIC

SMILES: C=C[C@]1(C)C[C@@H](OC(=O)Cn2cc(CN3CCN(c4ccccc4C)CC3)nn2)[C@]2(C)[C@H](C)CC[C@]3(CCC(=O)[C@H]32)[C@@H](C)[C@@H]1O [Compound 50, 22-(2-(4-(4-(o-Tolyl)-piperazin-1-yl)-methyl)-1H-1,2,3-triazol-1-yl)-22-deoxy pleuromutilin]
- Kd (50S ribosome; [3]): 0.0232 µM
- Ka (association rate constant) (50S ribosome; 4 °C): 170 M⁻¹ s⁻¹
- Kd (dissociation rate constant) (50S ribosome; 4 °C): 3.93e-06 s⁻¹
- MIC (MRSA ATCC 43300 [1]; [4]): 1 µg/mL (≈ 1.62 µM)
- MBC (MRSA ATCC 43300 [1]; Staphylococcus aureus): 2 µg/mL (≈ 3.24 µM)
- time-kill kinetics result (MRSA ATCC 43300 [2]): relatively anti-MRSA bacteriostatic kinetics
- concentration giving a bactericidal effect (MRSA ATCC 43300 [2]): higher than 4 × MIC
- MIC (S. aureus AD3): 2 µg/mL (≈ 3.24 µM)
- MBC (S. aureus AD3): 4 µg/mL (≈ 6.47 µM)
- MIC (S. aureus ATCC 29213): 1 µg/mL (≈ 1.62 µM)
- MBC (S. aureus ATCC 29213): 2 µg/mL (≈ 3.24 µM)
- MIC (S. aureus 144): 4 µg/mL (≈ 6.47 µM)
- MBC (S. aureus 144): 4 µg/mL (≈ 6.47 µM)

SMILES: C=C[C@]1(C)C[C@@H](OC(=O)Cn2cc(CN3CCN(c4ccccc4[N+](=O)[O-])CC3)nn2)[C@]2(C)[C@H](C)CC[C@]3(CCC(=O)[C@H]32)[C@@H](C)[C@@H]1O [Compound 62, 22-(2-(4-(4-(2-Nitrophenyl)-piperazin-1-yl)-methyl)-1H-1,2,3-triazol-1-yl)-22-deoxy pleuromutilin]
- Kd (50S ribosome; [3]): 17.7 µM
- Ka (association rate constant) (50S ribosome; 4 °C): 734 M⁻¹ s⁻¹
- Kd (dissociation rate constant) (50S ribosome; 4 °C): 0.013 s⁻¹
- Kd (50S ribosome; read-out: interaction intensity level for 50S ribosome (KD class)): 10 to 1000 µM
- MIC (MRSA ATCC 43300 [1]; [4]): 1 µg/mL (≈ 1.54 µM)
- MBC (MRSA ATCC 43300 [1]; Staphylococcus aureus): 2 µg/mL (≈ 3.08 µM)
- time-kill kinetics result (MRSA ATCC 43300 [2]): relatively anti-MRSA bacteriostatic kinetics
- concentration giving a bactericidal effect (MRSA ATCC 43300 [2]): higher than 4 × MIC
- MIC (S. aureus AD3): 1 µg/mL (≈ 1.54 µM)
- MBC (S. aureus AD3): 4 µg/mL (≈ 6.17 µM)
- MIC (S. aureus ATCC 29213): 2 µg/mL (≈ 3.08 µM)
- MBC (S. aureus ATCC 29213): 2 µg/mL (≈ 3.08 µM)
- MIC (S. aureus 144): 2 µg/mL (≈ 3.08 µM)
- MBC (S. aureus 144): 4 µg/mL (≈ 6.17 µM)

SMILES: C=C[C@]1(C)C[C@@H](OC(=O)Cn2cc(CN3CCN(c4ccc([N+](=O)[O-])cc4)CC3)nn2)[C@]2(C)[C@H](C)CC[C@]3(CCC(=O)[C@H]32)[C@@H](C)[C@@H]1O [Compound 64, 22-(2-(4-(4-(4-Nitrophenyl)-piperazin-1-yl)-methyl)-1H-1,2,3-triazol-1-yl)-22-deoxy pleuromutilin]
- Kd (50S ribosome; [3]): 0.636 µM
- Ka (association rate constant) (50S ribosome; 4 °C): 1200 M⁻¹ s⁻¹
- Kd (dissociation rate constant) (50S ribosome; 4 °C): 0.000764 s⁻¹
- MIC (MRSA ATCC 43300 [1]): 0.5 µg/mL (≈ 0.771 µM)
- MIC (MRSA ATCC 43300 [1]; [4]): 0.5 µg/mL (≈ 0.771 µM)
- MBC (MRSA ATCC 43300 [1]; Staphylococcus aureus): 1 µg/mL (≈ 1.54 µM)
- MRSA killing, log10 CFU/mL reduction (MRSA ATCC 43300 [2]; 16 × MIC, after 3 h incubation): 2.21 log10 CFU/mL
- bacterial growth inhibition, log10 CFU/mL reduction (MRSA ATCC 43300 [2]; 16 × MIC, at 24 h): 4.49 log10 CFU/mL
- concentration giving a bactericidal effect (MRSA ATCC 43300 [2]): higher than 4 × MIC
- MIC (S. aureus AD3): 1 µg/mL (≈ 1.54 µM)
- MBC (S. aureus AD3): 4 µg/mL (≈ 6.17 µM)
- MIC (S. aureus ATCC 29213): 1 µg/mL (≈ 1.54 µM)
- MBC (S. aureus ATCC 29213): 2 µg/mL (≈ 3.08 µM)
- MIC (S. aureus 144): 2 µg/mL (≈ 3.08 µM)
- MBC (S. aureus 144): 4 µg/mL (≈ 6.17 µM)
